{
  "source": "patent US20070160975A1",
  "about": "“Method for the Identification of Drugs to Treat Stroke at Delayed Timepoints” (UNIVERSITY OF SOUTH FLORIDA, priority 2006, published 2007)",
  "key": {"[1]": {"system": "primary microglial cultures", "test": "LPS stimulated TNF-α release, ELISA", "type": "cell-based, rat", "settings": "TNF-α by ELISA", "description": "(§1) FIG. 2 is a graph illustrating that sigma receptor activation reduces LPS-induced cytotoxin production. […] Nitric oxide levels were quantified using the Griess reaction while TNF-α levels were measured by ELISA.\n(§2) To gauge anti-inflammatory action, primary microglial cultures will be treated with lipopolysaccharide, which elicits a robust inflammatory response from these cells. Compounds that are effective agonist stroke at delayed timepoints are able to block the LPS-induced inflammatory response in microglial cells. The inflammatory cytokine, TNF-α and nitric oxide are two inflammatory agents to be measured to determine anti-inflammatory action of the compound. […] Using these two in vitro screening methods, other compounds that will be useful in treating stroke will be discovered.\nTNF-α ELISA-Capture antibody (#MAB510 anti-rat antibody TNF R&D biosysterns) will be diluted with 2 μg/ml in coating buffer and incubated at 4° C. overnight. The capture antibody will then coat a high protein binding 96 well plate. Each well of the 96 well plate will be aspirated and washed three times with wash buffer. […] During incubation, direct light will be avoided 50 μl of 1 M H2SO4 will be added to each well and optical density will be determined within 30 minutes using a microplate reader set at 450 nm."}, "[2]": {"system": "primary microglial cultures", "test": "LPS stimulated nitric oxide release, Griess reaction", "type": "cell-based, rat", "settings": "nitric oxide by Griess reaction", "description": "as §1, §2\nNitric Oxide Determination: The supematant from treated primary rat rnicrogiia cultures will be harvested, placed in 1.5 ml micro-centrifuge tubes and then centrifuged in a bench top micro-centrifuge at 13,000×g for 1 minute. The supernatant will be withdrawn and placed in a clean, labeled micro-centrifuge tube. Standards (between 100 μM and 1 μM) will be prepared by diluting stock 1 mM Sodium Nitrite, contained in the kit, with DMEM in 1.5 ml micro centrifuge tubes. […] The absorbance at 458 nm will be measured in a spectrophotometer capable of reading 96 well plates."}},
  "data": [
    {"smiles": "Cc1ccccc1N=C(N)Nc1ccccc1C", "note": "[DTG]", "values": [
      {"measurement": "LPS stimulated TNF-α release", "setting": "[1]", "value": "dose dependently reduced"},
      {"measurement": "LPS stimulated nitric oxide release", "setting": "[2]", "value": "dose dependently reduced"}
    ]}
  ]
}
